Values joined by “and” are separate entries in the source; they are usually repeats but may differ in a detail not shown here. Identical values can stand only once. Numbers after ± are expanded uncertainties.
Assay: specific heat capacity at constant pressure; xn = mol fraction of the nth substance listed
Conditions: 100 kPa, Crystal of intercomponent compound 1, x2 = 0.542

[Te] [tellurium] + [In]
Conditions	specific heat capacity
155.64 K, relaxation calorimetry	195.94 ± 8 J/K/kg and 195.82 ± 8 J/K/kg
162.58 K, relaxation calorimetry	197.26 ± 8 J/K/kg
162.62 K, relaxation calorimetry	197.38 ± 8 J/K/kg
169.55 K, relaxation calorimetry	198.54 ± 8.1 J/K/kg
169.58 K, relaxation calorimetry	198.37 ± 8 J/K/kg
169.59 K, relaxation calorimetry	198.42 ± 8 J/K/kg
176.53 K, relaxation calorimetry	198.87 ± 8.1 J/K/kg
176.56 K, relaxation calorimetry	198.83 ± 8.1 J/K/kg
176.57 K, relaxation calorimetry	198.87 ± 8.1 J/K/kg
183.5 K, relaxation calorimetry	199.69 ± 8.1 J/K/kg
183.54 K, relaxation calorimetry	199.69 ± 8.1 J/K/kg
190.47 K, relaxation calorimetry	200.4 ± 8.1 J/K/kg
190.51 K, relaxation calorimetry	200.44 ± 8.1 J/K/kg and 200.48 ± 8.1 J/K/kg
197.43 K, relaxation calorimetry	200.56 ± 8.1 J/K/kg
197.47 K, relaxation calorimetry	200.68 ± 8.2 J/K/kg and 200.77 ± 8.2 J/K/kg
204.39 K, relaxation calorimetry	201.18 ± 8.2 J/K/kg
204.43 K, relaxation calorimetry	201.3 ± 8.2 J/K/kg
204.44 K, relaxation calorimetry	201.34 ± 8.2 J/K/kg
211.34 K, relaxation calorimetry	201.67 ± 8.2 J/K/kg
211.38 K, relaxation calorimetry	201.76 ± 8.2 J/K/kg
211.39 K, relaxation calorimetry	201.59 ± 8.2 J/K/kg
218.29 K, relaxation calorimetry	201.76 ± 8.2 J/K/kg
218.34 K, relaxation calorimetry	201.92 ± 8.2 J/K/kg
225.27 K, relaxation calorimetry	202.09 ± 8.2 J/K/kg
225.31 K, relaxation calorimetry	202.29 ± 8.3 J/K/kg and 202.17 ± 8.2 J/K/kg
226.53 K, relaxation calorimetry	200.85 ± 8.2 J/K/kg
226.54 K, relaxation calorimetry	201.01 ± 8.2 J/K/kg
231.55 K, relaxation calorimetry	201.3 ± 8.2 J/K/kg
231.56 K, relaxation calorimetry	201.22 ± 8.2 J/K/kg
232.22 K, relaxation calorimetry	202.38 ± 8.3 J/K/kg
232.27 K, relaxation calorimetry	202.33 ± 8.3 J/K/kg
232.28 K, relaxation calorimetry	202.29 ± 8.3 J/K/kg
236.56 K, relaxation calorimetry	201.39 ± 8.2 J/K/kg
236.57 K, relaxation calorimetry	201.47 ± 8.2 J/K/kg
239.17 K, relaxation calorimetry	202 ± 8.2 J/K/kg
239.24 K, relaxation calorimetry	202.09 ± 8.2 J/K/kg and 202.05 ± 8.2 J/K/kg
241.58 K, relaxation calorimetry	201.67 ± 8.2 J/K/kg
241.6 K, relaxation calorimetry	201.26 ± 8.2 J/K/kg
246.14 K, relaxation calorimetry	201.88 ± 8.2 J/K/kg
246.19 K, relaxation calorimetry	202.09 ± 8.2 J/K/kg and 202.05 ± 8.2 J/K/kg
246.51 K, relaxation calorimetry	201.51 ± 8.2 J/K/kg
246.52 K, relaxation calorimetry	201.92 ± 8.2 J/K/kg
251.63 K, relaxation calorimetry	202.09 ± 8.2 J/K/kg
251.64 K, relaxation calorimetry	202 ± 8.2 J/K/kg
253.09 K, relaxation calorimetry	202.17 ± 8.2 J/K/kg
253.15 K, relaxation calorimetry	202.13 ± 8.2 J/K/kg and 202.17 ± 8.2 J/K/kg
256.55 K, relaxation calorimetry	202.29 ± 8.2 J/K/kg
256.56 K, relaxation calorimetry	202.17 ± 8.2 J/K/kg
260.04 K, relaxation calorimetry	202.25 ± 8.2 J/K/kg
260.1 K, relaxation calorimetry	202.25 ± 8.2 J/K/kg and 202.29 ± 8.2 J/K/kg
261.55 K, relaxation calorimetry	202.25 ± 8.2 J/K/kg
261.57 K, relaxation calorimetry	202.13 ± 8.2 J/K/kg
266.18 K, Extra sensitive DSC	203.98 ± 7.9 J/K/kg
270 K, Extra sensitive DSC	203.98 ± 7.9 J/K/kg
275 K, Extra sensitive DSC	204.48 ± 7.9 J/K/kg
280 K, Extra sensitive DSC	204.89 ± 7.9 J/K/kg
285 K, Extra sensitive DSC	205.18 ± 8 J/K/kg
290 K, Extra sensitive DSC	205.59 ± 8 J/K/kg
295 K, Extra sensitive DSC	206.09 ± 8 J/K/kg
300 K, Extra sensitive DSC	206.5 ± 8 J/K/kg
305 K, Extra sensitive DSC	207.08 ± 8 J/K/kg
310 K, Extra sensitive DSC	207.28 ± 8 J/K/kg
315 K, Extra sensitive DSC	207.28 ± 8 J/K/kg
320 K, Extra sensitive DSC	207.28 ± 8 J/K/kg
325 K, Extra sensitive DSC	207.49 ± 8 J/K/kg
328.56 K, Extra sensitive DSC	207.7 ± 8 J/K/kg
332.56 K, Extra sensitive DSC	209.1 ± 8.1 J/K/kg
335.17 K, Extra sensitive DSC	209.43 ± 8.1 J/K/kg
336.9 K, Extra sensitive DSC	209.39 ± 8.1 J/K/kg
339.51 K, Extra sensitive DSC	209.35 ± 8.1 J/K/kg
342.11 K, Extra sensitive DSC	209.39 ± 8.1 J/K/kg
344.71 K, Extra sensitive DSC	209.18 ± 8.1 J/K/kg
347.32 K, Extra sensitive DSC	209.02 ± 8.1 J/K/kg
349.92 K, Extra sensitive DSC	208.77 ± 8.1 J/K/kg
352.53 K, Extra sensitive DSC	208.4 ± 8.1 J/K/kg
355.13 K, Extra sensitive DSC	208.48 ± 8.1 J/K/kg
357.73 K, Extra sensitive DSC	208.27 ± 8.1 J/K/kg
358.6 K, Extra sensitive DSC	208.15 ± 8 J/K/kg

Reference: the NIST ThermoML archive (doi:10.1016/j.jct.2018.08.013)
